Test results published in patent publication US11311610B2, “Immune-modulating agents and uses therefor” (UNIVERSITY OF TECHNOLOGY SYDNEY, priority 2010, dated 2022).
Where a SMILES comes first, the peptide text is derived from it.

What was measured:
[1] = system: RAW macrophages; assay: ATP induced macrophage cell death (LDH release); assay type: cell-based, murine; details: 20 μg/mL pre-treatment 1 h, then ATP 5 mM 2 h
Description: FIG. 16 is a graphical representation showing that FhHDM-1 P3 prevents ATP induced cell death in RAW macrophages. RAW macrophages were pretreated with either FhHDM-1 (20 μg/mL) or FhHDM-1 p3 (20 μg/mL) for 1 h, then washed and cultured in the presence of ATP (5 mM) for 2 h. Cell death (% cytotoxicity) was quantified according to the amount of LDH released by the cells into culture media.
Raw macrophages were pre-treated with either HDM (20 μg/mL) or FhHDM-1 P3 (20 μg/mL) for 1 h, washed and then cultured in the presence of ATP (5 mM) for 2 h. The culture supernatants were collected and assayed for LDH activity with an LDH release kit. The amount of LDH release by cells treated with ATP only was used to represent 100% cytotoxicity.

[2] = established T1D, early randomized trials; cited from earlier work
[3] = system: ATPase activity associated with lysosomal membranes (equivalent to vATPase activity); assay: ATPase activity of enriched lysosomal membranes; assay type: biochemical, murine; details: lysosomal membranes from RAW264.7 macrophage lysates
Description: FIG. 17 is a graphical representation showing that FhHDM-1 P3 inhibits ATPase activity associated with lysosomal membranes in a concentration-dependent manner. A cellular fraction enriched for lysosomes was prepared by sequential centrifugation of RAW264.7 macrophage lysates. The lysosomal membranes were recovered and assayed (with or without HDM peptides) for ATPase activity using a commercially available kit.
FIG. 18 is a diagrammatic representation showing a sequence alignment of various synthetic HDM peptides. The amphipathic helix is shaded in grey as are the mutated residues in peptides nonHP and 2Pro. NonHP is a variant of FhHDM-1 P3 in which the hydrophobic face of the FhHDM-1 amphipathic helix was removed. 2Pro is a variant of FhHDM-1 P3 in which two prolines substitutions were incorporated to disrupt the alpha-helix. Cons_p3 is a consensus peptide corresponding to various FhHDM-1 homologs. All peptides in the alignment were tested for their ability to inhibit the ATPase activity associated with enriched lysosomal membranes (prepared from RAW macrophages). Those with inhibitory activity are shown in bold text.
A cellular fraction enriched for lysosomes was prepared by sequential centrifugation of RAW264.7 macrophage lysates. The lysosome pellet was extracted with water and the resulting lysosomal membranes were recovered and assayed (with or without HDM peptides) for ATPase activity using a commercially available kit.

[4] = system: LPS-induced inflammatory response; assay: Endotoxin (LPS)-induced inflammation in mice, co-injection; assay type: in vivo, BALB/c mice
Description: (§1) FIG. 9 is a graphical representation showing LPS neutralization by FhHDM-1. The ability of FhHDM-1 (Δ), FhHDM-1 p1 (●) or FhHDM-1 p3 (▪) to bind to LPS was investigated by (A) incubating a range of concentrations of proteins (0.02-2 μg/well) in an LPS-coated (100 ng/well) microtitre plate. Bound peptides were detected by ELISA using rabbit anti-FhHDM-1 as a primary antibody. (B) FhHDM-1 or derived peptides (0.1 μg) were incubated in the presence of LPS (0.05-5 μg/well) and bound peptides measured as described above. Binding of peptides to the LPS-immobilized plates was expressed as a percentage of that measured for 2 μg (for panel A) or 0.1 μg (for panel B) of FhHDM-1. Data are the means±SD from three separate experiments. (C) FhHDM-1 and FhHDM-1 p3 but not FhHDM-1 p1 reduced the interaction between LPS and LBP as effectively as LL-37. LPS-coated microtitre plates were incubated with 5 μg/well of LL-37, FhHDM-1 or derived peptides for 1 h prior to the addition of 10% human sera in PBS. Interaction of LBP with LPS was measured by ELISA using an anti-LBP primary antibody and expressed as a percentage of that detected for 10% sera in the absence of added peptides. Data are the mean±SD of three separate experiments. Statistical significance was calculated using the student t-test and represent a comparison to the binding of 10% sera to immobilized LPS. (D) Binding of FITC-conjugated LPS to RAW264.7 cells was inhibited by LL-37, FhHDM-1 and peptides. RAW264.7 cells (5×10^5 cells/mL) were incubated with 1 μg/mL of FITC-conjugated LPS in the presence of increasing concentrations (0.1-10 μg/mL) of FhHDM-1, FhHDM-1 p1 and FhHDM-1 p3 and LL-37 in RPMI 1640 containing 10% FBS for 20 min at 4° C. The binding of FITC-LPS was analyzed by flow cytometry. LPS binding was expressed as a percentage of the mean fluorescence obtained for the addition of FITC-LPS to cells in the absence of peptides. Data are the mean±SD of two independent experiments. (E) FhHDM-1 and FhHDM-1 p3 both suppress the inflammatory response induced by LPS in mice. BALB/c mice were intra-peritoneally injected with 1 μg of LPS alone or combined with 1 μg of FhHDM-1, FhHDM-1 p3 or LL-37. Two hours later, sera was collected and serum levels of TNF and (F) IL-10 measured by ELISA. (G) Peritoneal macrophages were isolated, cultured unstimulated in media overnight and then levels of TNF and (H) IL-10 in the culture measured by ELISA. Data are the mean±SD of six mice in each group. Statistical significance represents a comparison to the levels of cytokines secreted by mice given LPS only.
Human Defense peptides protect against harmful inflammatory responses by preventing activation of macrophages by classical TLR ligands such as LPS (Scott et al. 2002, J. Immunol. 169, 3883-3891). Here, the inventors employed a murine model to examine whether FhHDM-1 and derived peptides can suppress LPS-induced Th1 inflammation. BALB/c mice were injected intra-peritoneally with 1 μg of LPS alone or LPS combined with 1 μg of FhHDM-1, FhHDM-1 p3 or LL-37. Two hours later, sera was collected and serum levels of the pro-inflammatory mediators TNF and IL-10 were measured by ELISA. […] Because macrophages are the main source of pro-inflammatory mediators in this murine model of inflammation, peritoneal macrophages were isolated from treated mice (LPS±FhHDM-1, peptides or LL-37 as described above), cultured unstimulated in media overnight and then levels of TNF and IL-10 in the culture media were measured by ELISA.
Six week-old female BALB/c mice were purchased from ARC (Perth, Australia) and maintained according to the guidelines of the University of Technology Sydney Animal Care and Ethics committee. For the analysis for endotoxin-induced inflammation, mice were intra-peritoneally injected with 1 μg of E. coli LPS (serotype 111:B4; Sigma) either with or without 1 μg FhHDM-1 or derived peptides. After 2 h mice were sacrificed by cervical dislocation. […]

[5] = system: interaction of LPS with LPS-binding protein (LBP); assay: Assay for the interaction of LPS with LBP (ELISA); set-up: species or system mouse; details: 5 μg/well, 1 h before 10% sera; ELISA with anti-LBP
Description: as §1, with “RAW264.7 cells (5×10^5 cells/mL) were incubated with 1 μg/mL of FITC-conjugated LPS in the presence of increasing concentrations (0.1-10 μg/mL) of FhHDM-1, FhHDM-1 p1 and FhHDM-1 p3 and LL-37 in RPMI 1640 containing 10% FBS for 20 min at 4° C.” left out, “Data are the mean±SD of two independent experiments. (E) FhHDM-1 and FhHDM-1 p3 both suppress the inflammatory response induced by LPS in mice. BALB/c mice were intra-peritoneally injected with 1 μg of LPS alone or combined with 1 μg of FhHDM-1, FhHDM-1 p3 or LL-37.” left out, “Data are the mean±SD of six mice in each group. Statistical significance represents a comparison to the levels of cytokines secreted by mice given LPS only.” left out
The ability of FhHDM-1 and derived peptides to block the interaction of LPS with LPB was assessed by ELISA using an anti-LBP primary antibody. […]

[6] = system: RAW264.7 cells; assay: Binding of FITC-conjugated LPS to RAW 264.7 cells (flow cytometry); assay type: cell-based, murine; details: 0.1-10 μg/mL, 20 min at 4° C.
Description: as §1, with “RAW264.7 cells (5×10^5 cells/mL) were incubated with 1 μg/mL of FITC-conjugated LPS in the presence of increasing concentrations (0.1-10 μg/mL) of FhHDM-1, FhHDM-1 p1 and FhHDM-1 p3 and LL-37 in RPMI 1640 containing 10% FBS for 20 min at 4° C.” left out, “Data are the mean±SD of two independent experiments. (E) FhHDM-1 and FhHDM-1 p3 both suppress the inflammatory response induced by LPS in mice. BALB/c mice were intra-peritoneally injected with 1 μg of LPS alone or combined with 1 μg of FhHDM-1, FhHDM-1 p3 or LL-37.” left out, “Data are the mean±SD of six mice in each group. Statistical significance represents a comparison to the levels of cytokines secreted by mice given LPS only.” left out
The effect of FhHDM-1 and derived peptides on the binding of FITC-LPS to CD14+ cells was determined by flow cytometry of the murine macrophage cell line RAW264.7. […]

[7] = BALB/c mice, 1 μg LPS mixed with 1 μg i.p., 2 h
[8] = macrophages from treated mice, cultured unstimulated overnight

CC[C@H](C)[C@H](NC(=O)[C@H](CCCCN)NC(=O)[C@H](CCC(=O)O)NC(=O)CNC(=O)[C@H](CC(C)C)NC(=O)[C@H](CC(N)=O)NC(=O)[C@H](CC(=O)O)NC(=O)[C@H](CCCCN)NC(=O)[C@H](C)NC(=O)[C@H](CC(C)C)NC(=O)[C@H](Cc1ccc(O)cc1)NC(=O)[C@H](C)NC(=O)[C@H](CCSC)NC(=O)[C@H](C)N)C(=O)N[C@H](C(=O)N[C@@H](CCC(=O)O)C(=O)N[C@H](C(=O)N[C@H](C(=O)N[C@H](C(=O)N[C@H](C(=O)N[C@@H](CC(C)C)C(=O)N[C@@H](CC(C)C)C(=O)N[C@@H](CC(N)=O)C(=O)N[C@@H](CCCNC(=N)N)C(=O)N[C@@H](CC(C)C)C(=O)N[C@H](C(=O)N[C@@H](CC(=O)O)C(=O)N[C@@H](CCCNC(=N)N)C(=O)N[C@@H](CC(C)C)C(=O)N[C@@H](CCC(=O)O)C(=O)N[C@@H](CCCCN)C(=O)N[C@@H](Cc1ccc(O)cc1)C(=O)N[C@@H](C)C(=O)NCC(=O)O)[C@@H](C)O)[C@@H](C)CC)[C@@H](C)O)[C@@H](C)CC)C(C)C)[C@@H](C)O [FhHDM-1 p3] (H-AMAYLAKDNLGEKITEVITILLNRLTDRLEKYAG-OH)
LDH release induced by ATP (cytotoxicity of ATP) [1]: inhibited LDH release

Cn1cnc([N+](=O)[O-])c1Sc1ncnc2nc[nH]c12 [azathioprine]
treated patients becoming independent of insulin therapy [2]: approximately 50%

HDMp2: SEQ ID NO:122, 27 aa, comprising a shorter amphipathic helix than FhHDM-1 peptide 3 (NLGEKITEVITILLNRLTDRLEKYAGN; FhHDM-1 peptide 2)
ATPase activity associated with lysosomal membranes [3]: inhibitory

LL-37 [reference compound]
serum levels of IL-10 [4, 7]: significant reduction | serum levels of TNF [4, 7]: significant reduction | LPS-induced secretion of IL-10 from peritoneal macrophages [4, 8]: significantly inhibited | TNF secreted from peritoneal macrophages [4, 8]: did not significantly reduce | interaction between LPS and LBP [5]: significantly reduced | binding of FITC-LPS to RAW264.7 macrophages [6]: most strongly inhibited
